Source: patent US12398132B2, “Derivatives of 4-(imidazo[1,2-a]pyridin-3-yl)-n-(pyridinyl)pyrimidin-2-amine as therapeutic agents” (AUCENTRA THERAPEUTICS PTY LTD, priority 2019, dated 2025)

Legend:
CDK4/D1 = CDK4/D1 (Homo sapiens, UniProt P11802); assay: ADP Glo kinase assay, CDK4/D1; assay type: biochemical; details: CDK4D1; compound at 1 μM (values marked *); read-out: residual enzymatic activity (%) at 1 μM*
CDK6/D3 = CDK6/D3 (Homo sapiens, UniProt Q00534); assay: ADP Glo kinase assay, CDK6/D3; assay type: biochemical; details: CDK6D3; compound at 1 μM (values marked *); read-out: residual enzymatic activity (%) at 1 μM*
CDK9/CyclinT1 = CDK9/CyclinT1 (Homo sapiens, UniProt P50750); assay: ADP Glo kinase assay, CDK9/CyclinT1; assay type: biochemical; details: CDK9T1; for remaining activity at 1 µM: compound at 1 μM (values marked *), read-out: residual enzymatic activity (%) at 1 μM*
MV-4-11 = assay: Proliferation assay (resazurin/MTT), MV-4-11; assay type: cell-based; details: Homo sapiens, MV4-11, read-out: 72 h Growth inhibition GI50, MV-4-11 cells
U937 = assay: Proliferation assay (resazurin/MTT), U937; assay type: cell-based; details: Homo sapiens, U-937, read-out: 72 h Growth inhibition GI50, U937 cells
CDK1B = CDK1B (Homo sapiens, UniProt P06493); details: 1 µM
CDK2E1 = CDK2E1 (Homo sapiens, UniProt P24941); details: 1 µM
CDK7HMAT1 = CDK7HMAT1 (Homo sapiens, UniProt P50613); details: 1 µM;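 note: kinase activity measured with an ADP-Glo luminescent kinase assay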
FLT3(ITD) = biological target: T1, FLT3(ITD) (Homo sapiens, UniProt P36888); assay: ADP Glo kinase assay, FLT3(ITD); assay type: biochemical; details: apparent Ki calculated from Km (ATP) and IC50, read-out: FLT3 inhibition Ki
T1 sequence (P36888 1-993): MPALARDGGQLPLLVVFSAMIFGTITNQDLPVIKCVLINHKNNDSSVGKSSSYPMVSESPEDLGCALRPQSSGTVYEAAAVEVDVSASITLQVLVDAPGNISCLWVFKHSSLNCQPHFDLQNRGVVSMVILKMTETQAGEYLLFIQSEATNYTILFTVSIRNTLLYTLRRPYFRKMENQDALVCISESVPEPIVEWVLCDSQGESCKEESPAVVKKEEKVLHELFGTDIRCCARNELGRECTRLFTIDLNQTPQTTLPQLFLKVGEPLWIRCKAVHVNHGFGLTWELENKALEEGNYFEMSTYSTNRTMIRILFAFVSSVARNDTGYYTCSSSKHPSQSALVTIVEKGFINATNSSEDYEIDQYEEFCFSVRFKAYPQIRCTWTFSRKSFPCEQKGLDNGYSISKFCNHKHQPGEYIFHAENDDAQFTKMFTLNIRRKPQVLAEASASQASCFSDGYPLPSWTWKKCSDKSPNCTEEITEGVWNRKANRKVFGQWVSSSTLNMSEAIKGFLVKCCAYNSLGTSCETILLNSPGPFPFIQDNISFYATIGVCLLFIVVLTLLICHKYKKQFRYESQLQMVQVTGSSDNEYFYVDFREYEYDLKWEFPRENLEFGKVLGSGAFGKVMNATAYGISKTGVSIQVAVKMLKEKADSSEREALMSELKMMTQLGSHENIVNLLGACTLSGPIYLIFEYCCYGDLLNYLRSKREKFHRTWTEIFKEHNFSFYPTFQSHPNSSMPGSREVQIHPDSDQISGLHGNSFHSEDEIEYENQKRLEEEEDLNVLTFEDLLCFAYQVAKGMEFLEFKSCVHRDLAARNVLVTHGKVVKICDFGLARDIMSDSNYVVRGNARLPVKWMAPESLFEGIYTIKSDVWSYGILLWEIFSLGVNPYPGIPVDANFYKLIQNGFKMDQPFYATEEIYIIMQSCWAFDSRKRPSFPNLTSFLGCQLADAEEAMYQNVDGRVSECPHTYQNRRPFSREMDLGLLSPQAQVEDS
Protocol: Inhibition of FLT3(WT), FLT3(ITD) and FLT3(D835Y) and CDKs were determined using ADP Glo Kinase assays (Promega Corporation, Madison, WI, USA). […] The kinase reactions are run for an optimised time period (FLT3-WT: 120 min, FLT3-ITD: 80 min, FLT3-D835Y: 100 min) at room temperature and then the reaction was stopped by adding 5 μL of ADP Glo reagent. […] Positive and negative controls were performed in 0.5% DMSO in the presence and absence of each FLT3 kinase, respectively. […] Half-maximal inhibition (IC50) values were calculated using a 4-parameter logistic non-linear regression model with Graphpad prism (Version 6.0). Apparent inhibition constants (Ki) values were calculated from Km (ATP) and IC50 values for the respective kinases.

CDK1B, sequence (P06493 whole entry): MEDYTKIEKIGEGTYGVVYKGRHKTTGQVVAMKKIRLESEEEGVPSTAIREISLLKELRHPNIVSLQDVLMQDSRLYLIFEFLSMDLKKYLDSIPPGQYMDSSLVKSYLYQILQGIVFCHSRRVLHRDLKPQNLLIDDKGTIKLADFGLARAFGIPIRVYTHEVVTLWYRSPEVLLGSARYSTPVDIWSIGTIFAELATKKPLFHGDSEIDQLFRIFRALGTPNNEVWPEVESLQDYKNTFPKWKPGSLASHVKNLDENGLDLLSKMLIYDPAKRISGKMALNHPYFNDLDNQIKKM
CDK1B, sequence (P14635 whole entry partner): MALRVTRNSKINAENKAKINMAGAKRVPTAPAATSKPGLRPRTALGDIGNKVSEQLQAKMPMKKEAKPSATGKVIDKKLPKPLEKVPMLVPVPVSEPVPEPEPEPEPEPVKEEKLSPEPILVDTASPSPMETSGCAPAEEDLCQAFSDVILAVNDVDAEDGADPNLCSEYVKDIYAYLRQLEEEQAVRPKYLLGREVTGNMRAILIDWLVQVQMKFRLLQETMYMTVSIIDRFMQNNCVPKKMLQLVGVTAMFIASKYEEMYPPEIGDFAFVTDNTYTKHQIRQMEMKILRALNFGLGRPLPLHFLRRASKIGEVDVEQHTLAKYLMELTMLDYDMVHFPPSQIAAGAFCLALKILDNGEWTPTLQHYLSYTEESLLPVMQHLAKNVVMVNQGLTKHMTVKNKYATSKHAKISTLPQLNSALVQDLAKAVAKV
CDK4/D1, sequence (P11802 whole entry, species assumed): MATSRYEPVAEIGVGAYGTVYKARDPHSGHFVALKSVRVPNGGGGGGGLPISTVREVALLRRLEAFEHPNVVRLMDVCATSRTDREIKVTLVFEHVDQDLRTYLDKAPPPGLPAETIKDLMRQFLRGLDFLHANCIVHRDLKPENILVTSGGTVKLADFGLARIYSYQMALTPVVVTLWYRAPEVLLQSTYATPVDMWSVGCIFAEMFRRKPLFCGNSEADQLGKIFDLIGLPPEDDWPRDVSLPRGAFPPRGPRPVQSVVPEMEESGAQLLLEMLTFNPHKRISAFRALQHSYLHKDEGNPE
CDK4/D1, sequence (P24385 whole entry partner, species assumed): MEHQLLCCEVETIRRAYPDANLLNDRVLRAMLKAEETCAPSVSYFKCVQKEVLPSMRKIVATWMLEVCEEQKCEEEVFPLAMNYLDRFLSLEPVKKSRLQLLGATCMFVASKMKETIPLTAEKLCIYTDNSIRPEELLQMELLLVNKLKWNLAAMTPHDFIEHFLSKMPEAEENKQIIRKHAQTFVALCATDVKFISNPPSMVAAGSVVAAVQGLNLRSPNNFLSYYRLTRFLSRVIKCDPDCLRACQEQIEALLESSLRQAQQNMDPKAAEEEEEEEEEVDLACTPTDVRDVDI
CDK7HMAT1, sequence (P50613 whole entry): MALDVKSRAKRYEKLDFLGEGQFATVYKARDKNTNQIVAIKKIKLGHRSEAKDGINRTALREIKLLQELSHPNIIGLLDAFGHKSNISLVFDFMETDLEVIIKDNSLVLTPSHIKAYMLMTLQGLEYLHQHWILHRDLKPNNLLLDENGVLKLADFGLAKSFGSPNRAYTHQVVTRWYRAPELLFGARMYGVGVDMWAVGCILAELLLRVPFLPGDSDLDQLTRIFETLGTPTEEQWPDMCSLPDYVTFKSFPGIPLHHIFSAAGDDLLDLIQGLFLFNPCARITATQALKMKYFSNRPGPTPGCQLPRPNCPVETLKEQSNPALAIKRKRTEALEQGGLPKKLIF
CDK7HMAT1, sequence (P51946 whole entry partner): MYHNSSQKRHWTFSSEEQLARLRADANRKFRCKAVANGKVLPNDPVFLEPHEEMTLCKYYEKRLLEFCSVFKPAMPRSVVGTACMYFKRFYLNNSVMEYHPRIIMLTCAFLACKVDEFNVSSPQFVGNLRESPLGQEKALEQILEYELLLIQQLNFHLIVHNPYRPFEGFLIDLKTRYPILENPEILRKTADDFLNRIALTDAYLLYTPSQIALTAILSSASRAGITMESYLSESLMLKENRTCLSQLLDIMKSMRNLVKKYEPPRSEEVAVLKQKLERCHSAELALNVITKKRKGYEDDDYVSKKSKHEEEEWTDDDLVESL
CDK7HMAT1, sequence (P51948 whole entry partner): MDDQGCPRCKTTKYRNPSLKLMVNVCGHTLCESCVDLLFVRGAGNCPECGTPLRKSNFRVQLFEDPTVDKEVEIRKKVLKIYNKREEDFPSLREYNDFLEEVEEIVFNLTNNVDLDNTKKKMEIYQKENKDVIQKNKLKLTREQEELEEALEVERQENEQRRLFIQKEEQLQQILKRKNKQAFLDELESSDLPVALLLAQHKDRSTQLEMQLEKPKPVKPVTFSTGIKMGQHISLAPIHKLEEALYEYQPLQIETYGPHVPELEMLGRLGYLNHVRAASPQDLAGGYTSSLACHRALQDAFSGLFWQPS
CDK9/CyclinT1, sequence (P50750 whole entry, species assumed): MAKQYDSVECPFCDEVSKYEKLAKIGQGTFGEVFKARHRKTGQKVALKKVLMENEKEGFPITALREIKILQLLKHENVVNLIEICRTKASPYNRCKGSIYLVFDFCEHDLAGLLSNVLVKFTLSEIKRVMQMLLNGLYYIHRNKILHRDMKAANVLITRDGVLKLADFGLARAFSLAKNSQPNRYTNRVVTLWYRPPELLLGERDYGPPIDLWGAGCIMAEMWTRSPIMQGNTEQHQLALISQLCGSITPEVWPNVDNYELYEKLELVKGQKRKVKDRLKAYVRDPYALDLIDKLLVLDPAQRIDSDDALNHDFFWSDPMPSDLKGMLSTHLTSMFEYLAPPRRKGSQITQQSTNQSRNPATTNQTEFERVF
CDK9/CyclinT1, sequence (O60563 whole entry partner, species assumed): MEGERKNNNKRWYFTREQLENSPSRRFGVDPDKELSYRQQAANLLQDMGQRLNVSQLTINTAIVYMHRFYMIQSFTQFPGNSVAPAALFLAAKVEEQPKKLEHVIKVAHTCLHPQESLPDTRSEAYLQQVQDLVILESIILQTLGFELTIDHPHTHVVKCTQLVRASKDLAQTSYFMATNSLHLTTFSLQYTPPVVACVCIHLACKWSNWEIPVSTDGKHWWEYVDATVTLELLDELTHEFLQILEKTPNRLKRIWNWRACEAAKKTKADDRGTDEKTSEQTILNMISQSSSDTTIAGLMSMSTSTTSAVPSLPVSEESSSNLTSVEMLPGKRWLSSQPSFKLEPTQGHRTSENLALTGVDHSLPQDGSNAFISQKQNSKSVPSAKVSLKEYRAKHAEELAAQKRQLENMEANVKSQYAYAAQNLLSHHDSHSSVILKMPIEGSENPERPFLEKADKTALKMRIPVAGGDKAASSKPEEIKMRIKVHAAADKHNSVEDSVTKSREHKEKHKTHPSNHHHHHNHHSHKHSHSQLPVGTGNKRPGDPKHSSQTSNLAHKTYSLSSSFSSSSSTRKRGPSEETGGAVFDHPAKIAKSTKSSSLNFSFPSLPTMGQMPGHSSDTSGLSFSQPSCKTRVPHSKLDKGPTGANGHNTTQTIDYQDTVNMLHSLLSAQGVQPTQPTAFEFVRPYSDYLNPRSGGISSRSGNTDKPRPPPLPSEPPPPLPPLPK
CDK6/D3, sequence (Q00534 whole entry, species assumed): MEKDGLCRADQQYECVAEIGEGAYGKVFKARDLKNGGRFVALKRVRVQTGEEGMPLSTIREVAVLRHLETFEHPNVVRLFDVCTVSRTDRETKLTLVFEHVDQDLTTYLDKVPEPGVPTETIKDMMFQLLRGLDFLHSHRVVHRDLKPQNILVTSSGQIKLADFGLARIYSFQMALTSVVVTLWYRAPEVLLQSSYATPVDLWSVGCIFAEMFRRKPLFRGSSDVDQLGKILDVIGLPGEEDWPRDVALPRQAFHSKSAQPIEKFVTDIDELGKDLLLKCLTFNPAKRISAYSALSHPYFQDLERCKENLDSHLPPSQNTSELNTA
CDK6/D3, sequence (P30281 whole entry partner, species assumed): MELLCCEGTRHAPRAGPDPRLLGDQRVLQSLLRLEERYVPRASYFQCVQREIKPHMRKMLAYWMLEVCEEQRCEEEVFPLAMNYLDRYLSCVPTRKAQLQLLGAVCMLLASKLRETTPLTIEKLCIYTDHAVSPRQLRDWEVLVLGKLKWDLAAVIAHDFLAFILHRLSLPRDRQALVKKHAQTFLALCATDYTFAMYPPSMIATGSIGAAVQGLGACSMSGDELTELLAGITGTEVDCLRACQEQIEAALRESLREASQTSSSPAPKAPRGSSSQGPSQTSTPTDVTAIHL

remaining activity at 1 µM (CDK4/D1) [%] | remaining activity at 1 µM (CDK6/D3) [%] | remaining activity at 1 µM (CDK9/CyclinT1) [%] | GI50 (MV-4-11) [nM] | GI50 (U937) [nM] | activity (CDK1B) [%] | activity (CDK2E1) [%] | activity (CDK7HMAT1) [%] | Ki (CDK9/CyclinT1; apparent Ki calculated from Km (ATP) and IC50, read-out: CDK inhibition Ki) [nM] | Ki (FLT3(ITD)) [nM] | SMILES
70 | 70 | 85 | 44 | 2910 | 99 | 82 | 102 | – | – | CC(=O)N1CCN(c2ccc(Nc3nccc(-c4cnc5ccc(-c6cn(S(=O)(=O)c7ccccc7)c7ncccc67)cn45)n3)nc2)CC1 [Cmpd 38, 1-(4-(6-((4-(6-(1-(Phenylsulfonyl)-1H-pyrrolo[2,3-b]pyridin-3-yl)imidazo[1,2-a]pyridin-3-yl)pyrimidin-2-yl)amino)pyridin-3-yl)piperazin-1-yl)ethan-1-one]
54 | 89 | 42 | 1 | 1280 | 98 | 81 | 79 | – | – | CC(=O)N1CCN(c2ccc(Nc3nccc(-c4cnc5ccc(-c6c[nH]c7ccccc67)cn45)n3)nc2)CC1 [Cmpd 41, 1-(4-(6-((4-(6-(1H-Indol-3-yl)imidazo[1,2-a]pyridin-3-yl)pyrimidin-2-yl)amino)pyridin-3-yl)piperazin-1-yl)ethan-1-one]
52 | 64 | – | 5 | 1560 | 95 | 46 | 80 | 607 | – | CC(=O)N1CCN(c2ccc(Nc3nccc(-c4cnc5ccc(-c6c[nH]c7ncccc67)cn45)n3)nc2)CC1 [Cmpd 42, 1-(4-(6-((4-(6-(1H-pyrrolo[2,3-b]pyridin-3-yl)imidazo[1,2-a]pyridin-3-yl)pyrimidin-2-yl)amino)pyridin-3-yl)piperazin-1-yl)ethan-1-one]
– | – | – | 22 | 339 | – | – | – | – | 16 | CCC(=O)N1CCN(c2ccc(Nc3nccc(-c4cnc5ccccn45)n3)nc2)CC1 [Cmpd 56, 1-(4-(6-((4-(Imidazo[1,2-a]pyridin-3-yl)pyrimidin-2-yl)amino)pyridin-3-yl)piperazin-1-yl)propan-1-one]
– | – | – | 19 | 243 | – | – | – | – | 84 | CC(=O)N1CCN(c2ccc(Nc3nccc(-c4cnc5ccc(-c6cnn(C7CCN(C(=O)OC(C)(C)C)CC7)c6)cn45)n3)nc2)CC1 [Cmpd 60, Tert-butyl 4-(4-(3-(2-((5-(4-acetylpiperazin-1-yl)pyridin-2-yl)amino)pyrimidin-4-yl)imidazo[1,2-a]pyridin-6-yl)-1H-pyrazol-1-yl)piperidine-1-carboxylate]
– | – | – | 117 | 600 | – | – | – | – | 70 | CCN1CCN(Cc2ccc(Nc3ncc(F)c(-c4cnc5ccc(-c6ccccc6)cn45)n3)nc2)CC1 [Cmpd 68, N-(5-((4-Ethylpiperazin-1-yl)methyl)pyridin-2-yl)-5-fluoro-4-(6-phenylimidazo[1,2-a]pyridin-3-yl)pyrimidin-2-amine]

The remaining lines, values behind:

SMILES | remaining activity at 1 µM (CDK4/D1) [%] | remaining activity at 1 µM (CDK6/D3) [%] | remaining activity at 1 µM (CDK9/CyclinT1) [%] | GI50 (MV-4-11) [nM] | GI50 (U937) [nM] | activity (CDK1B) [%] | activity (CDK2E1) [%] | activity (CDK7HMAT1) [%] | Ki (CDK9/CyclinT1; apparent Ki calculated from Km (ATP) and IC50, read-out: CDK inhibition Ki) [nM] | Ki (FLT3(ITD)) [nM]
CC(=O)N1CCN(c2ccc(Nc3nccc(-c4cnc5ccc(-c6cccc7[nH]ccc67)cn45)n3)nc2)CC1 [Cmpd 36, 1-(4-(6-((4-(6-(1H-Indol-4-yl)imidazo[1,2-a]pyridin-3-yl)pyrimidin-2-yl)amino)pyridin-3-yl)piperazin-1-yl)ethan-1-one] | 58 | 76 | 99 | 12 | 1360 | 96 | 89 | 96 | – | –
CC(=O)N1CCN(c2ccc(Nc3nccc(-c4cnc5ccc(-c6cc7ccccc7[nH]6)cn45)n3)nc2)CC1 [Cmpd 37, 1-(4-(6-((4-(6-(1H-Indol-2-yl)imidazo[1,2-a]pyridin-3-yl)pyrimidin-2-yl)amino)pyridin-3-yl)piperazin-1-yl)ethan-1-one] | 78 | 78 | 39 | 10 | 2420 | 96 | 91 | 103 | – | –
CC(=O)N1CCN(c2ccc(Nc3nccc(-c4cnc5ccc(-c6cn(C)c7ccccc67)cn45)n3)nc2)CC1 [Cmpd 40, 1-(4-(6-((4-(6-(1-Methyl-1H-indol-3-yl)imidazo[1,2-a]pyridin-3-yl)pyrimidin-2-yl)amino)pyridin-3-yl)piperazin-1-yl)ethan-1-one] | 55 | 78 | 82 | 1 | 1340 | 97 | 93 | 104 | – | –
Cc1ccc(Nc2nccc(-c3cnc4ccccn34)n2)nc1 [Cmpd 55, 4-(Imidazo[1,2-a]pyridin-3-yl)-N-(5-methylpyridin-2-yl)pyrimidin-2-amine] | – | – | – | 49 | 471 | – | – | – | – | 44
CC(=O)N1CCN(c2ccc(Nc3nccc(-c4cnc5ccc(-c6cc[nH]n6)cn45)n3)nc2)CC1 [Cmpd 57, 1-(4-(6-((4-(6-(1H-Pyrazol-3-yl)imidazo[1,2-a]pyridin-3-yl)pyrimidin-2-yl)amino)pyridin-3-yl)piperazin-1-yl)ethan-1-one] | – | – | – | 4 | 728 | – | – | – | – | 6
CC(=O)N1CCN(c2ccc(Nc3nccc(-c4cnc5ccc(-c6ccn(C)n6)cn45)n3)nc2)CC1 [Cmpd 58, 1-(4-(6-((4-(6-(1-Methyl-1H-pyrazol-3-yl)imidazo[1,2-a]pyridin-3-yl)pyrimidin-2-yl)amino)pyridin-3-yl)piperazin-1-yl)ethan-1-one] | – | – | – | 9 | 206 | – | – | – | – | 49
CC(=O)N1CCN(c2ccc(Nc3nccc(-c4cnc5ccc(-c6cnn(C(F)F)c6)cn45)n3)nc2)CC1 [Cmpd 59] | – | – | – | 8 | 462 | – | – | – | – | 18
CC(=O)N1CCN(c2ccc(Nc3nccc(-c4cnc5ccc(-c6ccc(C)o6)cn45)n3)nc2)CC1 [Cmpd 61, 1-(4-(6-((4-(6-(5-Methylfuran-2-yl)imidazo[1,2-a]pyridin-3-yl)pyrimidin-2-yl)amino)pyridin-3-yl)piperazin-1-yl)ethan-1-one] | – | – | – | < 0.1 | 199 | – | – | – | – | 4
CN1CCN(c2ccc(Nc3nccc(-c4cnc5ccc(-c6cnn(C)c6)cn45)n3)nc2)CC1 [Cmpd 62, 4-(6-(1-Methyl-1H-pyrazol-4-yl)imidazo[1,2-a]pyridin-3-yl)-N-(5-(4-methylpiperazin-1-yl)pyridin-2-yl)pyrimidin-2-amine] | – | – | – | 6 | 773 | – | – | – | – | 29
CC(=O)N1CCN(c2ccc(Nc3nccc(-c4cnc5ccc(C6=CCN(C(=O)OC(C)(C)C)CC6)cn45)n3)nc2)CC1 [Cmpd 63, Tert-butyl 4-(3-(2-((5-(4-acetylpiperazin-1-yl)pyridin-2-yl)amino)pyrimidin-4-yl)imidazo[1,2-a]pyridin-6-yl)-3,6-dihydropyridine-1(2H)-carboxylate] | – | – | – | 35 | 436 | – | – | – | – | 132
CC(C)(C)OC(=O)N1CC=C(c2ccc(Nc3nccc(-c4cnc5ccccn45)n3)nc2)CC1 [Cmpd 64, Tert-butyl 6-((4-(imidazo[1,2-a]pyridin-3-yl)pyrimidin-2-vi)amino)-3′,6′-dihydro-[3,4′-bipyridine]-1′(2′H)-carboxylate] | – | – | – | 152 | 367 | – | – | – | – | 308
CN1CCN(c2ccc(Nc3nccc(-c4cnc5ccc(-c6cccnc6)cn45)n3)nc2)CC1 [Cmpd 65, N-(5-(4-Methylpiperazin-1-yl)pyridin-2-yl)-4-(6-(pyridin-3-yl)imidazo[1,2-a]pyridin-3-yl)pyrimidin-2-amine] | – | – | – | 32 | 382 | – | – | – | – | 30
